The values below come from patent US8691820B2, “CDK inhibitors” (Curis, Inc., priority 2008, dated 2014).

Data set [1] deals with T1, CDK2/cyclinA (Homo sapiens, UniProt P24941).
T1 construct: C-terminal 6His-tagged human full length cdk2 (MW=35 kDa); 6His (C); made in house; host or cells: Sf21 insect cells (baculovirus)
Kind of data set: CDK2 kinase assay (33P-ATP, Histone H1 substrate). The class given is biochemical. The note with it: 1 μM ATP, 5 μM Histon H1, 2 hours at room temperature. The text has this: CDK2/cyclinA (Accession number for CDK2; EMBL M68520, for cyclin A; EMBL X51688): C-terminal 6His-tagged human full length cdk2 (MW=35 kDa), and N-terminal GST-tagged human full length cyclin A (MW=75 kDa) were expressed individually with baculovirus system in Sf21 insect cells. Recombinant cdk2 protein was purified with Ni2+/NTA agarose and then activated using CAK and repurified by Q Sepharose and Ni2+/NTA agarose. Recombinant cyclin A was purified using glutathione-agarose. They were then mixed in vitro to form protein complex. Recombinant protein complex was measured to be 67% in purity with SDS-PAGE and Coomassie blue staining. Specific activity of purified enzyme was measured to be 158 U/mg, where one unit of cdk2/cyclinA activity is defined as 1 nmol phosphate incorporated into 0.1 mg/ml histone H1 per minute at 30° C. with a final ATP concentration of […]. Enzyme was stored at a concentration of 0.1 mg/ml in 50 mM Tris/HCl pH7.5, 150 mM NaCl, 0.1 mM EGTA, 0.03% Brij-35, 270 mM sucrose, 1 mM benzamidine, 0.2 mM PMSF, 0.1% 2-mercaptoethanol. Frozen solution.
Histon H1 (Substrate for CDK2): Histone H1 (Sigma cat#H4524), was purified as a lysine rich fraction from calf thymus with 93% purity (MW=21.5 kDa). Purified protein was stored at a concentration of 20 mg/ml=930 μM in distilled water.
[…] (0.5 nmol) and 5 μM Histon H1 were mixed in the reaction buffer (20 mM HEPES (pH 7.5), 10 mM MgCl2, 1 mM EGTA, 0.02% Brij 35, 0.02 mg/ml BSA, 0.1 mM Na3VO4, 2 mM DTT) with final concentration of 1 μM ATP and 1% DMSO. The reaction was incubated for 2 hours at room temperature and conversion rate of ATP is about 4.5%. An equal volume of 25% TCA was added to stop the reaction and precipitate the labeled peptides. Precipitated proteins were trapped onto glass fiber B filterplates and excess […] p33 ATP was washed off. The plates were allowed to air-dry prior to the addition of 30 uL/well of Packard Microscint 20. The amount of incorporated isotope was measured using a Perkin Elmer TopCount plate reader. Different concentrations of compounds were added to reaction to assess the activity of compounds to inhibit […]. IC50 was calculated using Prism software with sigmoidal dose-response curve fitting.
The following TABLE B lists compounds representative of the invention and their activity in the CDK2 assay. In this assay, the following grading was used: I≧10 μM, 10 μM>II>1 μM, 1 μM>III>0.1 μM, and IV≦0.1 μM for IC50.

For data set [2], the target named is CDK1 (Homo sapiens, UniProt P06493). Kind of data set: CDK1 kinase inhibition (Table B). The class given is biochemical.
Data set [3] has as its target CDK3 (Homo sapiens, UniProt Q00526). Kind of data set: CDK3 kinase inhibition (Table B). Type of data set: biochemical.
Data set [4] concerns the target CDK4 (Homo sapiens, UniProt P11802). Nature of the data set: CDK4 kinase inhibition (Table B). Type of data set: biochemical.
For data set [5], the target named is CDK9 (Homo sapiens, UniProt P50750). Nature of the data set: CDK9 kinase inhibition (Table B). The class given is biochemical.
Sequence of CDK9 (P50750 whole entry): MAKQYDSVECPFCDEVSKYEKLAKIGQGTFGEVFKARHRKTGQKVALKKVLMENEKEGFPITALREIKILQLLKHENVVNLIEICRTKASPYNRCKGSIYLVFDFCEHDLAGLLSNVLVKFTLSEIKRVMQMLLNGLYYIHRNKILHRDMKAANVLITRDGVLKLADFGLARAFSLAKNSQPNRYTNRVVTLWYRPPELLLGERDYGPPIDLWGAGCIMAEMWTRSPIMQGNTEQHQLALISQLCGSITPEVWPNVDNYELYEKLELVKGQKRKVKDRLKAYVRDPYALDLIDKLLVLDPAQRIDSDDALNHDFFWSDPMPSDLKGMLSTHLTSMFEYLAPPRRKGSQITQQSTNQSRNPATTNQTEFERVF
Sequence of CDK9 (O60563 whole entry partner): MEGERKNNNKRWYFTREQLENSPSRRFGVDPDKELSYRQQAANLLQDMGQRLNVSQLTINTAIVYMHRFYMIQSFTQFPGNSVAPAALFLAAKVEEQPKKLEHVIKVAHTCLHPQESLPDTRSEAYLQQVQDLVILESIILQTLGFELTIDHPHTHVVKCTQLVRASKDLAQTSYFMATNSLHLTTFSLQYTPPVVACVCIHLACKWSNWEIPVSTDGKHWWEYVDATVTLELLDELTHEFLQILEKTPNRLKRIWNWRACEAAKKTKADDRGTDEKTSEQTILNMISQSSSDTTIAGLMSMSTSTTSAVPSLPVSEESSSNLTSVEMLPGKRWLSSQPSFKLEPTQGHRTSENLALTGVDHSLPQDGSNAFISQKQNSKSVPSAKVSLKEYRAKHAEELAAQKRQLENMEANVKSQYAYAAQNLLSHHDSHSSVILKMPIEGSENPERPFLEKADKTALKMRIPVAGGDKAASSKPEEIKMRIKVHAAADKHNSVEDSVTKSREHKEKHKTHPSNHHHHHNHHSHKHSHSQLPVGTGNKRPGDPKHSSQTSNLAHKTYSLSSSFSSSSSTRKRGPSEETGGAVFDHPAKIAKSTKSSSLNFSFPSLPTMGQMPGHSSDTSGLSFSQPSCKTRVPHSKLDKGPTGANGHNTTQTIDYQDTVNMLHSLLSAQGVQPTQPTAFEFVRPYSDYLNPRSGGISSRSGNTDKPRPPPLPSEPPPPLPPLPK

Sequence of CDK4 (P11802 whole entry): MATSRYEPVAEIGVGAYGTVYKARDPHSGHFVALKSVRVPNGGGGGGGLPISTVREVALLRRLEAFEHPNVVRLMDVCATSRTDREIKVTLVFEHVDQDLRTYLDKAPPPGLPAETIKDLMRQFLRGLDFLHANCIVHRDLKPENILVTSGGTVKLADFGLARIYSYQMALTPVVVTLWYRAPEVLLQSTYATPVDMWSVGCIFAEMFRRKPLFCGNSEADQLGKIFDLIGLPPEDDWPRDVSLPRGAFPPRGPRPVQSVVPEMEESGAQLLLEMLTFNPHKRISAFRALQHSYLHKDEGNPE
Sequence of CDK4 (P24385 whole entry partner): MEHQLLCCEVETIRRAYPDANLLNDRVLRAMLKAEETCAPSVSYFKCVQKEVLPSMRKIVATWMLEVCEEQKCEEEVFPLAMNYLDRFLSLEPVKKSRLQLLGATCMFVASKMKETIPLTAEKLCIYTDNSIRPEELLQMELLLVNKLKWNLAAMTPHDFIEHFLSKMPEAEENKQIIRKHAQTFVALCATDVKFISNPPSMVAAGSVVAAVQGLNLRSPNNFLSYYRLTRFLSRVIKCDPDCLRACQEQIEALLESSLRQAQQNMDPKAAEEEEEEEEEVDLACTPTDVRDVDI
Sequence of CDK1 (P06493 whole entry): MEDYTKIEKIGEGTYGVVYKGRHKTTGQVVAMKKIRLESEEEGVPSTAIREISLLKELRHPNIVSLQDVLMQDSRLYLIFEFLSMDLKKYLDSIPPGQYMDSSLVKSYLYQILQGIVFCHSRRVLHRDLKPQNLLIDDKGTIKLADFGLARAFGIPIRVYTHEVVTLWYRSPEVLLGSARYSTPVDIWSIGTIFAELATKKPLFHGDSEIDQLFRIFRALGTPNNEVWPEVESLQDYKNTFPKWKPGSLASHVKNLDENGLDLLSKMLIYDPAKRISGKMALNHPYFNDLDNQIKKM
Sequence of CDK1 (P14635 whole entry partner): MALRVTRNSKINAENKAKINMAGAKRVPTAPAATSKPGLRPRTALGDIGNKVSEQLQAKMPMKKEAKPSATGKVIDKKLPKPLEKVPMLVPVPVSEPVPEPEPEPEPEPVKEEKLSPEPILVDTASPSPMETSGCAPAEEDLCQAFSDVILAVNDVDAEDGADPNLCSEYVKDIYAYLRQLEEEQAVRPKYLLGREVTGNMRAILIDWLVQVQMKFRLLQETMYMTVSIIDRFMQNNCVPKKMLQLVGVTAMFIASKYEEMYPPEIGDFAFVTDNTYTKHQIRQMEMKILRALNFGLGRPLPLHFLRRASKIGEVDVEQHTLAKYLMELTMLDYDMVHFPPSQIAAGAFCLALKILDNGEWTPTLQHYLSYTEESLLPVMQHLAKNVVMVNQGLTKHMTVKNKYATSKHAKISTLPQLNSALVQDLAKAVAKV
Sequence of CDK3 (Q00526 whole entry): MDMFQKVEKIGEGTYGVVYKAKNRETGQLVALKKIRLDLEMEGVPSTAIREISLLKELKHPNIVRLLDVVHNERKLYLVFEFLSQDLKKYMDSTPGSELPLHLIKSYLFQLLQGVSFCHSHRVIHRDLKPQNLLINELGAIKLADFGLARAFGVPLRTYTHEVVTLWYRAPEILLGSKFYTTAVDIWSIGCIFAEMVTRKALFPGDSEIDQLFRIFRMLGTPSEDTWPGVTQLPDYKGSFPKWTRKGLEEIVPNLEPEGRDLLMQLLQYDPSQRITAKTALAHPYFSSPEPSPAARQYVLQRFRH
Sequence of CDK3 (P24864 whole entry partner): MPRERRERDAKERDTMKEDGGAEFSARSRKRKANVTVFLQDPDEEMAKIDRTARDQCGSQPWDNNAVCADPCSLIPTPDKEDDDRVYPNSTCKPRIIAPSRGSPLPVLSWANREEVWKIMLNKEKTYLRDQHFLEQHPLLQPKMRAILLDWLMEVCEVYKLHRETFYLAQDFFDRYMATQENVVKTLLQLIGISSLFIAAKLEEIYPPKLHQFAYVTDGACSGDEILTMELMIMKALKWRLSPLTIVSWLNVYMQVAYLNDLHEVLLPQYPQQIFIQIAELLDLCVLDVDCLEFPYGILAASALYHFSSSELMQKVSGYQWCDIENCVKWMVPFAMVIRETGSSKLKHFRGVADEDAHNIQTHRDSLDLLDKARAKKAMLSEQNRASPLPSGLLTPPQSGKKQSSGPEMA

As a reminder, the IC50 is the concentration that inhibits the measured activity by half. Low values mean greater potency in that assay, high ones weaker potency in that assay. `CC(C)N(O)C(=O)CCCCCCC(=O)Nc1ncc(SCc2ncc(C(C)(C)C)o2)s1` [Compound 5, N^1-(5-((5-tert-butyloxazol-2-yl)methylthio)thiazol-2-yl)-N^8-hydroxy-N^8-isopropyloctanediamide]: the IC50 is not above 100 nM in data set [1]; not above 100 nM in data set [2]; not above 100 nM in data set [3]; 100 to 1000 nM in data set [4]; not above 100 nM in data set [5]. In the case of `CC(C)(C)c1cnc(CSc2cnc(NC(=O)CCCCCCC(=O)Nc3ccccc3N)s2)o1` [Compound 18, N^1-(2-aminophenyl)-N^8-(5-((5-tert-butyloxazol-2-yl)methylthio)thiazol-2-yl)octanediamide], the IC50 in data set [1] is not above 100 nM; in data set [2], not above 100 nM; in data set [3], not above 100 nM; in data set [4], 100 to 1000 nM; in data set [5] it was not above 100 nM. A word on the melting point: it is the temperature, or range, at which the solid turns liquid. Take `CC(C)(C)c1cnc(CSc2cnc(NC(=O)CCCCCCC(=O)Nc3cc(C(F)(F)F)ccc3N)s2)o1` [Compound 24, N^1-(2-amino-5-(trifluoromethyl)phenyl)-N^8-(5-((5-tert-butyloxazol-2-yl)methylthio)thiazol-2-yl)octanediamide]: the melting point lay within 77 to 82 °C. Also, in data set [1], the IC50 was not above 100 nM. As for `CC(C)(C)c1cnc(CSc2cnc(NC(=O)CCCCCCC(=O)Nc3ccc(C(F)(F)F)cc3N)s2)o1` [Compound 25, N^1-(2-amino-4-(trifluoromethyl)phenyl)-N^8-(5-((5-tert-butyloxazol-2-yl)methylthio)thiazol-2-yl)octanediamide], the melting point fell in the range of 114 to 116 °C. Also, in data set [1], the IC50 is not above 100 nM.

As for `CC(C(=O)Nc1ncc(SCc2ncc(C(C)(C)C)o2)s1)c1ccc(OCCCC(=O)Nc2ccccc2N)cc1` (centres unmarked) [Compound 57, N-(2-aminophenyl)-4-(4-(1-(5-((5-tert-butyloxazol-2-yl)methylthio)thiazol-2-ylamino)-1-oxopropan-2-yl)phenoxy)butanamide], in data set [1], the IC50 is not above 100 nM. Still for that read-out and setting: as for `CC(Sc1cnc(NC(=O)Cc2ccc(OCCCC(=O)Nc3ccccc3N)cc2)s1)c1ncc(C(C)(C)C)o1` (centres unmarked) [Compound 58, N-(2-aminophenyl)-4-(4-(2-(5-(1-(5-tert-butyloxazol-2-yl)ethylthio)thiazol-2-ylamino)-2-oxoethyl)phenoxy)butanamide], the figure is not above 100 nM; as for `CC(C)(C)c1cnc(CSc2cnc(NC(=O)Cc3ccc(OCCCC(=O)Nc4ccc(F)cc4N)cc3)s2)o1` [Compound 59, N-(2-amino-4-fluorophenyl)-4-(4-(2-(5-((5-tert-butyloxazol-2-yl)methylthio)thiazol-2-ylamino)-2-oxoethyl)phenoxy)butanamide], not above 100 nM.

Consider `CC(C)(C)c1cnc(CSc2cnc(NC(=O)Cc3ccc(OCCCC(=O)Nc4cc(F)ccc4N)cc3)s2)o1` [Compound 60, N-(2-amino-5-fluorophenyl)-4-(4-(2-(5-((5-tert-butyloxazol-2-yl)methylthio)thiazol-2-ylamino)-2-oxoethyl)phenoxy)butanamide], for which, in data set [1], the IC50 is not above 100 nM. Still for that read-out and setting: for `CC(C)(C)c1cnc(CSc2cnc(NC(=O)Cc3ccc(OCCCC(=O)Nc4ccccc4)cc3)s2)o1` [Compound 61, 4-(4-(2-(5-((5-tert-butyloxazol-2-yl)methylthio)thiazol-2-ylamino)-2-oxoethyl)phenoxy)-N-phenylbutanamide] the value was not above 100 nM; for `CC(C)(C)c1cnc(CSc2cnc(NC(=O)Cc3ccc(OCCCC(=O)Nc4ccncc4)cc3)s2)o1` [Compound 62, 4-(4-(2-(5-((5-tert-butyloxazol-2-yl)methylthio)thiazol-2-ylamino)-2-oxoethyl)phenoxy)-N-(pyridin-4-yl)butanamide], not above 100 nM; for `CC(C)(C)c1cnc(CSc2cnc(NC(=O)Cc3ccc(OCCCC(=O)Nc4cccnc4)cc3)s2)o1` [Compound 63, 4-(4-(2-(5-((5-tert-butyloxazol-2-yl)methylthio)thiazol-2-ylamino)-2-oxoethyl)phenoxy)-N-(pyridin-3-yl)butanamide], not above 100 nM. `CC(C)(C)c1cnc(CSc2cnc(NC(=O)Cc3ccc(OCCCC(=O)Nc4ccccn4)cc3)s2)o1` [Compound 64, 4-(4-(2-(5-((5-tert-butyloxazol-2-yl)methylthio)thiazol-2-ylamino)-2-oxoethyl)phenoxy)-N-(pyridin-2-yl)butanamide] gave a melting point of 126 to 129 °C. Besides, in data set [1], the IC50 was not above 100 nM.
